From patent US20080057129A1, “Drug microparticles” (priority 2006, published 2008)

Key:
[1] = Solubility of drug in menthol melt; format: physicochemical; conditions: for Solubility: in menthol melt
Experimental: Menthol (10 grams) was melted on a stirring hot plate with magnetic stirring, then heated to the desired temperature indicated in Table 1. The desired drug was added in small increments (approximately 0.1 grams) and stirred to obtain a clear solution. The desired drug was added in increments until no more drug dissolved in the menthol.
Menthol (10 grams) was melted on a stirring hot plate with magnetic stirring, then heated to the desired temperature indicated in Table 1. The Azithromycin was added in small increments (0.1 grams) and stirred to obtain a clear solution. The drug was added in increments until no more drug dissolved in the menthol.

[2] = tested on: antimicrobial peptide gene expression; conditions: Wang et al., J. Immunol. 2004; cited from earlier work

CCC(C)n1ncn(-c2ccc(N3CCN(c4ccc(OCC5COC(Cn6cncn6)(c6ccc(Cl)cc6Cl)O5)cc4)CC3)cc2)c1=O (stereo not drawn) [Itraconazole]
solubility in menthol ([1]; 60° C.): 1%
Solubility ([1]; 61 °C): 1.0 % w/w

CC[C@H]1OC(=O)[C@H](C)[C@@H](O[C@H]2C[C@@](C)(OC)[C@@H](O)[C@H](C)O2)[C@H](C)[C@@H](O[C@@H]2O[C@H](C)C[C@H](N(C)C)[C@H]2O)[C@](C)(O)C[C@@H](C)CN(C)[C@H](C)[C@@H](O)[C@]1(C)O [Azithromycin]
Solubility ([1]; 63 °C): 40.0 % w/w

C=C1/C(=C\C=C2/CCC[C@]3(C)[C@@H]([C@H](C)CCCC(C)(C)O)CC[C@@H]23)C[C@@H](O)C[C@@H]1O [calcitriol, 1,25-dihydroxyvitamin D3]
induction of antimicrobial peptide gene expression [2]: inducer of the antimicrobial peptide gene expression

O=C(O)c1ccccc1O [Salicylic acid]
Solubility ([1]; 43 °C): 16.0 % w/w

CC(=O)O[C@@]12CO[C@@H]1C[C@H](O)[C@@]1(C)C(=O)[C@H](O)C3=C(C)[C@@H](OC(=O)[C@H](O)[C@@H](NC(=O)OC(C)(C)C)c4ccccc4)C[C@@](O)([C@@H](OC(=O)c4ccccc4)[C@H]21)C3(C)C [Docetaxel]
solubility in the menthol melt ([1]; without the additives PEG 6000 and Poloxamer 407): soluble
